Measurements from US6506793B2, “Citral acetal” (Kao Corporation, priority 2000, dated 2003).

Test system: smell (isovaleric acid) of the socks
Assay: Organoleptic evaluation of smell of socks after application onto a bare foot
Format: in vivo, human
Set-up: key: 5: Strong; 4: Slightly strong; 3: Moderate; 2: Slightly weak; 1: Weak; 0: Does not smell
Conditions: 2 g of 0.1% solution in ethanol on a bare foot; smell (isovaleric acid) of socks after 8 hours
From the text: The present compounds 1 to 3 obtained in Examples 1 to 3, as well as commercial citral propylene glycol acetal (CITRAL PGA produced by Inoue Koryo Co., Ltd.) and citral hexylene glycol acetal (CITRAL HGA produced by Inoue Koryo Co., Ltd.) as comparative compounds, were used to prepare 0.1% solutions in ethanol respectively, and 2 g solution was applied onto a bare foot. 2 g ethanol (containing no test sample) was applied onto the other bare foot (blank), then socks were put on the feet respectively, and the extent of smell (isovaleric acid) of the socks after 8 hours was subjected to organoleptic evaluation by one skilled examiner in the following 6-level criteria.

Structure (SMILES)	Strength of Smell
CCCCCOCC1COC(C=C(C)CCC=C(C)C)O1 (centres unmarked) [Present Compound 1, citral pentyl glyceryl ether acetal]	2
CC(C)=CCCC(C)=CC1OC(C)CC(C)(C)O1 (centres unmarked) [CITRAL HGA, citral hexylene glycol acetal, reference compound]	5
CCCCCCCCOCC1COC(C=C(C)CCC=C(C)C)O1 (centres unmarked) [Present Compound 2, citral n-octyl glyceryl ether acetal]	2
CC(C)=CCC/C(C)=C/C1OCC(C)O1 (centres unmarked) [CITRAL PGA, citral propylene glycol acetal, reference compound]	5
CCCCC(CC)COCC1COC(C=C(C)CCC=C(C)C)O1 (centres unmarked) [Present Compound 3, citral 2-ethyl hexyl glyceryl ether acetal]	1
